{"source": "patent US12630563B2", "about": "“Macrocyclic RIP2-kinase inhibitors” (Oncodesign S.A., priority 2020, dated 2026)", "data": [{"molecular_target": "T1, recombinant hRIPK2 protein (kinase domain aa 1-299-His-tagged) (Homo sapiens, UniProt O43353)", "T1 construct": "kinase domain aa 1-299-His-tagged; purchased Life Technologies PR7829A", "T1 sequence (O43353 1-299)": "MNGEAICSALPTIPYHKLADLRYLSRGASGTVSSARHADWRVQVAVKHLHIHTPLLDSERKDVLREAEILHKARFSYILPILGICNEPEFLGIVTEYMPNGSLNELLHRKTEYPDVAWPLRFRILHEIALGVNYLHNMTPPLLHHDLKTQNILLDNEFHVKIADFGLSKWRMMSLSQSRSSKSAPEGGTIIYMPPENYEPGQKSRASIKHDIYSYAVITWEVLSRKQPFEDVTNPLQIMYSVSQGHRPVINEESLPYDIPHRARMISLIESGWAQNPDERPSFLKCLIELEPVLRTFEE", "assay": "RIPK2 AlphaLISA assay (displacement of bead-bound CZC-8004 from hRIPK2)", "assay_type": "binding", "details": "recombinant hRIPK2 kinase domain 10 nM, 2 h at 23° C.", "method_in_brief": "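His-tagged kinase domain (10 nM, as diluted) was mixed with compound (0.8% DMSO), acceptor beads bearing the probe CZC-8004 and Ni2+ donor beads. After 2 h at 23 °C, AlphaLISA signal was read. Loss of signal reflects displacement of the probe from RIPK2.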", "units": {"IC50": "µM"}, "values": [{"smiles": "CCOc1cn2ncc3c2nc1OC[C@@H]1C[C@@H](OCCOC)C(=O)N1CCNc1cc(OC)cc-3c1", "note": "[Example 124, (12R,14S)-18-ethoxy-4-methoxy-12-(2-methoxyethoxy)-16-oxa-7,10,20,21,24-pentaazapentacyclo[15.5.2. 1^2,6.0^10,^14.0^20,^23]pentacosa-1(23),2,4,6(25),17(24),18,21-heptaen-11-one]", "IC50": "< 0.01"}, {"smiles": "CO[C@@H]1C[C@H]2COc3nc4c(cnn4cc3C)-c3cc(F)cc(c3)NCCN2C1=O", "note": "[Example 30, (12R,14S)-4-fluoro-12-methoxy-18-methyl-16-oxa-7,10,20,21,24-pentaazapentacyclo[15.5.2.1^2,6.0^10,^14.0^20,^23]pentacosa-1(23),2(25),3,5,17(24),18,21-heptaen-11-one]", "IC50": "< 0.01"}, {"smiles": "CO[C@@H]1C[C@H]2COc3ccn4ncc(c4n3)-c3cc(cc(-c4ncon4)c3)NCCN2C1=O", "note": "[Example 76, (12R,14S)-12-methoxy-4-(1,2,4-oxadiazol-3-yl)-16-oxa-7,10,20,21,24-pentaazapentacyclo[15.5.2.1^2,6.0^1°,^14.0^2°,^23]pentacosa-1(23),2(25),3,5,17(24),18,21-heptaen-11-one]", "IC50": "< 0.01"}, {"smiles": "CO[C@@H]1C[C@H]2COc3ccn4ncc(c4n3)-c3cc(cc(-n4ncc(C)c4C)c3)NCCN2C1=O", "note": "[Example 84, (12R,14S)-4-(4,5-dimethyl-1H-pyrazol-1-yl)-12-methoxy-16-oxa-7,10,20,21,24-pentaazapentacyclo[15.5.2.1^2,6.0^1°,^14.0^2°,^23]pentacosa-1(23),2(25),3,5,17(24),18,21-heptaen-11-one]", "IC50": "< 0.01"}, {"smiles": "CO[C@@H]1C[C@H]2COc3ccn4ncc(c4n3)-c3cc(cc(-n4cccn4)c3)NCCN2C1=O", "note": "[Example 41, (12R,14S)-12-methoxy-4-(1H-pyrazol-1-yl)-16-oxa-7,10,20,21,24-pentaazapentacyclo[15.5.2.1^2,6.0^10,^14.0^20,^23]pentacosa-1(23),2(25),3,5,17(24),18,21-heptaen-11-one]", "IC50": "< 0.01"}, {"smiles": "COc1cc2cc(c1)-c1cnn3ccc(nc13)OC[C@@H]1C[C@@H](O)C(=O)N1CCN2", "note": "[Example 90, (12R,14S)-12-hydroxy-4-methoxy-16-oxa-7,10,20,21,24-pentaazapentacyclo[15.5.2.1^2,6.0^1°,^14.0^2°,^23]pentacosa-1 (23),2,4,6(25),17(24),18,21-heptaen-11-one]", "IC50": "< 0.01"}, {"smiles": "COCCO[C@@H]1C[C@H]2COc3nc4c(cnn4cc3OCC3CCO3)-c3cc(cc(OC)c3)NCCN2C1=O", "note": "(stereo partly drawn) [Example 130, (12R,14S)-4-methoxy-12-(2-methoxyethoxy)-18-(oxetan-2-ylmethoxy)-16-oxa-7,10,20,21,24-pentaazapentacyclo[15.5.2. 1^2,6.0^10,^14.0^20,^23]pentacosa-1(23),2,4,6(25),17(24),18,21-heptaen-11-one]", "IC50": "< 0.01"}, {"smiles": "COCC1C[C@H]2COc3ccn4ncc(c4n3)-c3cc(F)cc(c3)NCCN2C1=O", "note": "(single isomer, unassigned) [Example 32]", "IC50": "< 0.01"}, {"smiles": "COCCO[C@@H]1C[C@H]2COc3ccn4ncc(c4n3)-c3cc(C#N)cc(c3)NCCN2C1=O", "note": "(racemic) [Example 114, (12R,14S)-12-(2-methoxyethoxy)-11-oxo-16-oxa-7,10,20,21,24-pentaazapentacyclo[15.5.2.1^2,6.0^10,^14.0^20,^23]pentacosa-1(23),2,4,6(25),17(24),18,21-heptaene-4-carbonitrile]", "IC50": "< 0.01"}, {"smiles": "COCCO[C@@H]1C[C@H]2COc3ccn4ncc(c4n3)-c3cc(cc(OC)c3)NCCN2C1=O", "note": "[Example 47, (12R,14S)-4-methoxy-12-(2-methoxyethoxy)-16-oxa-7,10,20,21,24-pentaazapentacyclo[15.5.2.1^2,6.0^10,^14.0^20,^23]pentacosa-1(23),2(25),3,5,17(24),18,21-heptaen-11-one]", "IC50": "< 0.01"}, {"smiles": "COCCO[C@@H]1C[C@H]2COc3nc4c(cnn4cc3OCC3COC3)-c3cc(cc(OC)c3)NCCN2C1=O", "note": "[Example 144]", "IC50": "< 0.01"}, {"smiles": "COc1cc2cc(c1)-c1cnn3cc(OC)c(nc13)OC[C@@H]1C[C@@H](O)C(=O)N1CCN2", "note": "[Example 143, (12R,14S)-12-hydroxy-4,18-dimethoxy-16-oxa-7,10,20,21,24-pentaazapentacyclo[15.5.2. 1^2,6.0^10,^14.0^20,^23]pentacosa-1(23),2(25),3,5,17(24),18,21-heptaen-11-one]", "IC50": "< 0.01"}, {"smiles": "O=C1[C@H](OC2CCC2)C[C@H]2COc3ccn4ncc(c4n3)-c3cc(F)cc(c3)NCCN12", "note": "[Example 10, (12R,14S)-12-cyclobutoxy-4-fluoro-16-oxa-7,10,20,21,24-pentaazapentacyclo[15.5.2.1^2,6.0^10,^14.0^20,^23]pentacosa-1(23),2,4,6(25),17(24),18,21-heptaen-11-one]", "IC50": "< 0.01"}, {"smiles": "COc1cc2cc(c1F)NCCN1C(=O)[C@H](OC)C[C@H]1COc1ccn3ncc-2c3n1", "note": "[Example 27, (12R,14S)-5-fluoro-4,12-dimethoxy-16-oxa-7,10,20,21,24-pentaazapentacyclo[15.5.2.1^2,6.0^10,^14.0^20,^23]pentacosa-1(23),2,4,6(25),17(24),18,21-heptaen-11-one]", "IC50": "< 0.01"}, {"smiles": "CCO[C@@H]1C[C@H]2COc3ccn4ncc(c4n3)-c3cc(O)cc(c3)NCCN2C1=O", "note": "[Example 96, (12R,14S)-12-ethoxy-4-hydroxy-16-oxa-7,10,20,21,24-pentaazapentacyclo[15.5.2.1^2,6.0^1°,^14.0^2°,^23]pentacosa-1(23),2(25),3,5,17(24),18,21-heptaen-11-one]", "IC50": "< 0.01"}, {"smiles": "CCOc1cc2cc(c1)-c1cnn3cc(OC)c(nc13)OC[C@@H]1C[C@@H](OCCOC)C(=O)N1CCN2", "note": "[Example 140, (12R,14S)-4-ethoxy-18-methoxy-12-(2-methoxyethoxy)-16-oxa-7,10,20,21,24-pentaazapentacyclo[15.5.2.1^2,6.0^10,^14.0^20,^23]pentacosa-1(23),2,4,6(25),17(24),18,21-heptaen-11-one]", "IC50": "< 0.01"}, {"smiles": "COCCOc1cn2ncc3c2nc1OC[C@@H]1C[C@@H](OCCOC)C(=O)N1CCNc1cc(OC)cc-3c1", "note": "[Example 137, (12R,14S)-4-methoxy-12,18-bis(2-methoxyethoxy)-16-oxa-7,10,20,21,24-pentaazapentacyclo[15.5.2. 1^2,6.0^10,^14.0^20,^23]pentacosa-1(23),2,4,6(25),17(24),18,21-heptaen-11-one]", "IC50": "< 0.01"}, {"smiles": "COCCO[C@@H]1C[C@H]2COc3ccn4ncc(c4n3)-c3cc(cc(C(=O)C4CC4)c3)NCCN2C1=O", "note": "[Example 101, (12R,14S)-4-cyclopropanecarbonyl-12-(2-methoxyethoxy)-16-oxa-7,10,20,21,24-pentaazapentacyclo[15.5.2.1^2,6.0^1°,^14.0^2°,^23]pentacosa-1(23),2,4,6(25),17(24),18,21-heptaen-11-one]", "IC50": "0.1 to 11"}, {"smiles": "[2H]C([2H])([2H])O[C@@H]1C[C@H]2COc3ccn4ncc(c4n3)-c3cc(F)cc(c3)NCCN2C1=O", "note": "[Example 36, (12R,14S)-4-fluoro-12-(^2H3)methoxy-16-oxa-7,10,20,21,24-pentaazapentacyclo[15.5.2.1^2,6.0^10,^14.0^20,^23]pentacosa-1(23),2(25),3,5,17(24),18,21-heptaen-11-one]", "IC50": "< 0.01"}, {"smiles": "COCCO[C@@H]1C[C@H]2COc3nc4c(cnn4cc3OC3CC4(COC4)C3)-c3cc(cc(OC)c3)NCCN2C1=O", "note": "[Example 136, (12R,14S)-4-methoxy-12-(2-methoxyethoxy)-18-{2-oxaspiro[3.3]heptan-6-yloxy}-16-oxa-7,10,20,21,24-pentaazapentacyclo[15.5.2. 1^2,6.0^10,^14.0^20,^23]pentacosa-1(23),2,4,6(25),17(24),18,21-heptaen-11-one]", "IC50": "< 0.01"}, {"smiles": "COCCO[C@@H]1C[C@H]2COc3nc4c(cnn4cc3OCCO)-c3cc(cc(OC)c3)NCCN2C1=O", "note": "[Example 139, (12R,14S)-18-(2-hydroxyethoxy)-4-methoxy-12-(2-methoxyethoxy)-16-oxa-7,10,20,21,24-pentaazapentacyclo[15.5.2.1^2,6.0^1°,^14.0^2°,^23]pentacosa-1(23),2,4,6(25),17(24),18,21-heptaen-11-one]", "IC50": "< 0.01"}, {"smiles": "[2H]C([2H])([2H])O[C@@H]1C[C@H]2COc3ccn4ncc(c4n3)-c3cc(cc(OC)c3)NCCN2C1=O", "note": "[Example 37, (12R,14S)-12-(2H3)methoxy-4-methoxy-16-oxa-7,10,20,21,24-pentaazapentacyclo[15.5.2.1^2,6.0^10,^14.0^20,^23]pentacosa-1(23),2,4,6(25),17(24),18,21-heptaen-11-one]", "IC50": "< 0.01"}, {"smiles": "CCN(C)C(=O)c1cc2cc(c1)-c1cnn3cc(C)c(nc13)OC[C@@H]1C[C@@H](OC)C(=O)N1CCN2", "note": "[Example 62, (12R,14S)-N-ethyl-12-methoxy-N,18-dimethyl-11-oxo-16-oxa-7,10,20,21,24-pentaazapentacyclo[15.5.2.1^2,6.0^10,^14.0^20,^23]pentacosa-1(23),2(25),3,5,17(24),18,21-heptaene-4-carboxamide]", "IC50": "< 0.01"}, {"smiles": "CCO[C@@H]1C[C@H]2COc3nc4c(cnn4cc3C)-c3cc(cc(OC)c3)NCCN2C1=O", "note": "[Example 39, (2^3Z,2^4E,5^2S,5^4R)-5^4-ethoxy-1^5-methoxy-2^6-methyl-3-oxa-8-aza-2(3,5)-pyrazolo[1,5-a]96yrimidine-5(2,1)-pyrrolidina-1(1,3)-benzenacyclooctaphan-5^5-one]", "IC50": "< 0.01"}, {"smiles": "COCCO[C@@H]1C[C@H]2COc3ccn4ncc(c4n3)-c3cc(cc(OC(C)C)c3)NCCN2C1=O", "note": "(racemic) [Example 113, (12R,14S)-12-(2-methoxyethoxy)-4-(propan-2-yloxy)-16-oxa-7,10,20,21,24-pentaazapentacyclo[15.5.2.1^2,6.0^10,^14.0^20,^23]pentacosa-1(23),2(25),3,5,17(24),18,21-heptaen-11-one]", "IC50": "0.01 to 0.1"}, {"smiles": "CCO[C@@H]1C[C@H]2COc3ccn4ncc(c4n3)-c3cc(C#N)cc(c3)NCCN2C1=O", "note": "[Example 23, (12R,14S)-12-ethoxy-11-oxo-16-oxa-7,10,20,21,24-pentaazapentacyclo[15.5.2.1^2,6.0^10,^14.0^20,^23]pentacosa-1(23),2,4,6(25),17(24),18,21-heptaene-4-carbonitrile]", "IC50": "< 0.01"}]}]}
